According to patent publication US5955440A, “Macrolide LHRH antagonists” (Abbott Laboratories, priority 1998, dated 1999):

Target: T1, LHRH rat pituitary receptor (Rattus norvegicus, UniProt P30969)
T1 construct: from tissue; host or cells: rat pituitary
T1 sequence (P30969 1-327): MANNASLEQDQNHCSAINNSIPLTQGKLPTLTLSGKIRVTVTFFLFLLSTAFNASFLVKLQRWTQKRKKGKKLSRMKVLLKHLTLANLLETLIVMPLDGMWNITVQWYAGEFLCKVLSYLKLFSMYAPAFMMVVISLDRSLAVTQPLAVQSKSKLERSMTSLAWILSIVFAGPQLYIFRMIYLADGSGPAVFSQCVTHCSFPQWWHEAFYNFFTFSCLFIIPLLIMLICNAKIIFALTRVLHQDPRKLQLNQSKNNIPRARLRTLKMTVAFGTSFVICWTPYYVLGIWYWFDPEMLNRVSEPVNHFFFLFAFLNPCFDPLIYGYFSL
Assay: LHRH rat pituitary receptor binding (pKI)
Conditions: negative logarithm of the equilibrium dissociation constants, Table 1, read-out: receptor binding affinity (pKI) (converted)
Description: Representative compounds of the present invention were evaluated in in vitro tests for LHRH rat pituitary receptor binding (pKI) and for LH inhibition from rat pituitary cells for antagonist potency (pA2). The tests employed the methods detailed in F. Haviv, et al. J. Med. Chem., 32: 2340-2344 (1989). The receptor binding affinity (pKI) is the negative logarithm of the equilibrium dissociation constants.

Structure (SMILES) | Ki [nM]
CC[C@H]1OC(=O)[C@H](C)[C@@H](O[C@H]2C[C@@](C)(OC)[C@@H](O)[C@H](C)O2)[C@H](C)[C@@H](O[C@@H]2O[C@H](C)C[C@H](N(C)Cc3ccc(OCCO)cc3)[C@H]2O)[C@](C)(OC)C[C@@H](C)C(=O)[C@H](C)[C@H]2N(CCc3ccc(F)c(Cl)c3)C(=O)O[C@]12C [Example 49, 3'-N-Desmethyl-3'-N-(4-hydroxyethoxybenzyl)-11-deoxy-11-[carboxy-(3-chloro-4-fluorophenethylamino)]-6-O-methyl-erythromycin A 11,12-(cyclic carbamate)] | 3.16
CC[C@H]1OC(=O)[C@H](C)[C@@H](O[C@H]2C[C@@](C)(OC)[C@@H](O)[C@H](C)O2)[C@H](C)[C@@H](O[C@@H]2O[C@H](C)C[C@H](N(C)CCC(C)SC)[C@H]2O)[C@](C)(OC)C[C@@H](C)C(=O)[C@H](C)[C@H]2N(CCc3ccc(F)c(Cl)c3)C(=O)O[C@]12C (some centres unmarked) [Example 50, 3'-N-Desmethyl-3'-N-(3-methylthio)butyl-11-deoxy-11-[carboxy-(3-chloro-4-fluorophenethylamino)]-6-O-methyl-erythromycin A 11,12-(cyclic carbamate)] | 0.977
CC[C@H]1OC(=O)[C@H](C)[C@@H](O[C@H]2C[C@@](C)(OC)[C@@H](O)[C@H](C)O2)[C@H](C)[C@@H](O[C@@H]2O[C@H](C)C[C@H](N(C)CCCC(F)(F)F)[C@H]2O)[C@](C)(OC)C[C@@H](C)C(=O)[C@H](C)[C@H]2N(CCc3ccc(F)c(Cl)c3)C(=O)O[C@]12C [Example 51, 3'-N-Desmethyl-3'-N-(4,4,4-trifluorobutyl)-11-deoxy-11-[carboxy-(3-chloro-4-fluorophenethylamino)]-6-O-methyl-erythromycin A 11,12-(cyclic carbamate)] | 6.31
CC[C@H]1OC(=O)[C@H](C)[C@@H](O[C@H]2C[C@@](C)(OC)[C@@H](O)[C@H](C)O2)[C@H](C)[C@@H](O[C@@H]2O[C@H](C)C[C@H](N(C)C3CCC3)[C@H]2O)[C@](C)(OC)C[C@@H](C)C(=O)[C@H](C)[C@H]2N(CCc3ccc(Cl)c(F)c3)C(=O)O[C@]12C [Example 52, 3'-N-Desmethyl-3'-N-cyclobutyl-11-deoxy-11-[carboxy-(4-chloro-3-fluorophenethylamino)]-6-O-methyl-erythromycin A 11,12-(cyclic carbamate)] | 7.94
CC[C@H]1OC(=O)[C@H](C)[C@@H](O[C@H]2C[C@@](C)(OC)[C@@H](O)[C@H](C)O2)[C@H](C)[C@@H](O[C@@H]2O[C@H](C)C[C@H](N(C)C(C)C)[C@H]2O)[C@](C)(OC)C[C@@H](C)C(=O)[C@H](C)[C@H]2N(CCc3ccc(F)c(F)c3)C(=O)O[C@]12C [Example 53, 3'-N-Desmethyl-3'-N-isopropyl-11-deoxy-11-[carboxy-(3,4-difluorophenethylamino)]-6-O-methyl-erythromycin A 11,12-(cyclic carbamate)] | 3.02
CCCN(C)[C@H]1C[C@@H](C)O[C@@H](O[C@@H]2[C@@H](C)[C@H](O[C@H]3C[C@@](C)(OC)[C@@H](O)[C@H](C)O3)[C@@H](C)C(=O)O[C@H](CC)[C@@]3(C)OC(=O)N(CCc4ccc5c(c4)OCCO5)[C@@H]3[C@@H](C)C(=O)[C@H](C)C[C@@]2(C)OC)[C@@H]1O [Example 54, 3'-N-Desmethyl-3'-N-propyl-11-deoxy-11-[carboxy-[3 4-(1,4-dioxano)phenethylamino)]}-6-O-methyl-erythromycin A 11,12-(cyclic carbamate)] | 4.07
CC[C@H]1OC(=O)[C@H](C)[C@@H](O[C@H]2C[C@@](C)(OC)[C@@H](O)[C@H](C)O2)[C@H](C)[C@@H](O[C@@H]2O[C@H](C)C[C@H](N(C)CC3CC3)[C@H]2O)[C@](C)(OC)C[C@@H](C)C(=O)[C@H](C)[C@H]2N(CCc3ccc(Cl)c(Cl)c3)C(=O)O[C@]12C [Example 55, 3'-N-Desmethyl-3'-N-cyclopropylmethyl-11-deoxy-11-[carboxy-(3,4-dichlorophenethylamino)]-6-O-methyl-erythromycin A 11,12-(cyclic carbamate)] | 7.24
CC[C@H]1OC(=O)[C@H](C)[C@@H](O[C@H]2C[C@@](C)(OC)[C@@H](O)[C@H](C)O2)[C@H](C)[C@@H](O[C@@H]2O[C@H](C)C[C@H](N(C)CCC[S+](C)[O-])[C@H]2O)[C@](C)(OC)C[C@@H](C)C(=O)[C@H](C)[C@H]2N(CCc3ccc(Cl)c(Cl)c3)C(=O)O[C@]12C (some centres unmarked) [Example 56, 3'-N-Desmethyl-3'-N-[3-(methylsulfoxy)propyl]-11-deoxy-11-[carboxy-(3,4-dichlorophenethylamino)]-6-O-methyl-erythromycin A 11,12-(cyclic carbamate)] | 1.78
CCNC(=S)N(C)[C@H]1C[C@@H](C)O[C@@H](O[C@@H]2[C@@H](C)[C@H](O[C@H]3C[C@@](C)(OC)[C@@H](O)[C@H](C)O3)[C@@H](C)C(=O)O[C@H](CC)[C@@]3(C)OC(=O)N(CCc4ccc(Cl)c(Cl)c4)[C@@H]3[C@@H](C)C(=O)[C@H](C)C[C@@]2(C)OC)[C@@H]1O [Example 57, 3'-N-Desmethyl-3'-N-ethylthiourea-11-deoxy-11-[carboxy-(3,4-dichlorophenethylamino)]-6-O-methyl-erythromycin A 11,12-(cyclic carbamate)] | 9.12
CC[C@H]1OC(=O)[C@H](C)[C@@H](O[C@H]2C[C@@](C)(OC)[C@@H](O)[C@H](C)O2)[C@H](C)[C@@H](O[C@@H]2O[C@H](C)C[C@H](N(C)Cc3ccc(CO)o3)[C@H]2O)[C@](C)(OC)C[C@@H](C)C(=O)[C@H](C)[C@H]2N(CCc3ccc(Cl)c(Cl)c3)C(=O)O[C@]12C [Example 58, 3'-N-Desmethyl-3'-N-[2-(5-hydroxymethyl)furyl]methyl-11-deoxy-11-[carboxy-(3,4-dichlorophenethylamino)]-6-O-methyl-erythromycin A 11,12-(cyclic carbamate)] | 1.55
CC[C@H]1OC(=O)[C@H](C)[C@@H](O[C@H]2C[C@@](C)(OC)[C@@H](O)[C@H](C)O2)[C@H](C)[C@@H](O[C@@H]2O[C@H](C)C[C@H](N(C)CC3CC3)[C@H]2O)[C@](C)(OC)C[C@@H](C)C(=O)[C@H](C)[C@H]2N(CC3(c4ccc(Cl)c(Cl)c4)CC3)C(=O)O[C@]12C [Example 59, 3'-N-Desmethyl-3'-N-cyclopropylmethyl-11-deoxy-11-[carboxy-(α,α-cyclopropyl-3,4-dichlorophenethylamino)]-6-O-methyl-erythromycin A 11,12-(cyclic carbamate)] | 3.72
CCCN(C)[C@H]1C[C@@H](C)O[C@@H](O[C@@H]2[C@@H](C)[C@H](O[C@H]3C[C@@](C)(OC)[C@@H](O)[C@H](C)O3)[C@@H](C)C(=O)O[C@H](CC)[C@@]3(C)OC(=O)N(CCNc4ccc(Cl)cc4)[C@@H]3[C@@H](C)C(=O)[C@H](C)C[C@@]2(C)OC)[C@@H]1O [Example 60, 3'-N-Desmethyl-3'-N-propyl-11-deoxy-11-[carboxy-(4-chloroanilinoethylamino)]-6-O-methyl-erythromycin A 11,12-(cyclic carbamate)] | 2.69
CC[C@H]1OC(=O)[C@H](C)[C@@H](O[C@H]2C[C@@](C)(OC)[C@@H](O)[C@H](C)O2)[C@H](C)[C@@H](O[C@@H]2O[C@H](C)C[C@H](N(C)C3CCCC3)[C@H]2O)[C@](C)(OC)C[C@@H](C)C(=O)[C@H](C)[C@H]2N(CCNc3ccc(Cl)cc3)C(=O)O[C@]12C [Example 61] | 2.69
CC[C@H]1OC(=O)[C@H](C)[C@@H](O[C@H]2C[C@@](C)(OC)[C@@H](O)[C@H](C)O2)[C@H](C)[C@@H](O[C@@H]2O[C@H](C)C[C@H](N(C)Cc3ncc[nH]3)[C@H]2O)[C@](C)(OC)C[C@@H](C)C(=O)[C@H](C)[C@H]2N(CCc3ccc(Cl)c(Cl)c3)C(=O)O[C@]12C [Example 63, 3'-N-Desmethyl-3'-N-(2-imidazolyl)methyl-11-deoxy-11-[carboxy-(3,4-dichlorophenethylamino)]-6-O-methyl-erythromycin A 11,12-(cyclic carbamate)] | 7.41
CC[C@H]1OC(=O)[C@H](C)[C@@H](O[C@H]2C[C@@](C)(OC)[C@@H](O)[C@H](C)O2)[C@H](C)[C@@H](O[C@@H]2O[C@H](C)C[C@H](N(C)Cc3cccnc3)[C@H]2O)[C@](C)(OC)C[C@@H](C)C(=O)[C@H](C)[C@H]2N(CCc3ccc(Cl)c(Cl)c3)C(=O)O[C@]12C [Example 64, 3'-N-Desmethyl-3'-N-(3-pyridyl)methyl-11-deoxy-11-[carboxy-(3,4-dichlorophenethylamino)]-6-O-methyl-erythromycin A 11,12-(cyclic carbamate)] | 6.92
CC[C@H]1OC(=O)[C@H](C)[C@@H](O[C@H]2C[C@@](C)(OC)[C@@H](O)[C@H](C)O2)[C@H](C)[C@@H](O[C@@H]2O[C@H](C)C[C@H](N(C)Cc3ccccn3)[C@H]2O)[C@](C)(OC)C[C@@H](C)C(=O)[C@H](C)[C@H]2N(CCc3ccc(Cl)c(Cl)c3)C(=O)O[C@]12C [Example 65, 3'-N-Desmethyl-3'-N-(2-pyridyl)methyl-11-deoxy-11-[carboxy-(3,4-dichlorophenethylamino)]-6-O-methyl-erythromycin A 11,12-(cyclic carbamate)] | 7.41
CC[C@H]1OC(=O)[C@H](C)[C@@H](O[C@H]2C[C@@](C)(OC)[C@@H](O)[C@H](C)O2)[C@H](C)[C@@H](O[C@@H]2O[C@H](C)C[C@H](N(C)Cc3ccc([N+](=O)[O-])s3)[C@H]2O)[C@](C)(OC)C[C@@H](C)C(=O)[C@H](C)[C@H]2N(CCc3ccc(Cl)c(Cl)c3)C(=O)O[C@]12C [Example 66, 3'-N-Desmethyl-3'-N-[(5-nitro-2-thienyl]methyl-11-deoxy-11-[carboxy-(3,4-dichlorophenethylamino)]-6-O-methyl-erythromycin A 11,12-(cyclic carbamate)] | 1.38
